The source of these data is patent US12663562B2, “Polysaccharide hydrogel optical fibers and their fabrication and use” (The Board of Trustees of the Leland Stanford Junior …, priority 2021, dated 2026).

Type in all cases: cell-based
One assay concerns RV122 cancer cells. Kind of assay: Optical fiber anti-cancer drug testing (RFP-level transmission, calcein profiling, image quantification). The settings on record: for calcein activity profiling (slope of calcein conversion): RV122 cancer cells after culture with drug; for image quantification of native protein expression (RFP) and calcein metabolization: microscopy validation, RV122 cancer cells. The procedure:
(§1) To validate the possibility of light carrying information upon interaction with fluorescent molecules, 3T3 fibroblasts were stained with two model fluorescent markers of different wavelengths, namely Orange Cell Tracker CMRA and Calcein AM (Invitrogen) according to manufacturer's instructions. Briefly, 3T3 cells in suspension were incubated with each marker for 30 minutes under 37° C., washed with PBS, and introduced in the optical fiber core as described above. Fibers were then fabricated and aligned in the input-output setup as previously described the light source and spectrometer. Output spectra were collected and spectral ratios were obtained by dividing the spectra of fluorescent-tagged cell-laden fibers to those without fluorescent molecules, in order to confirm the presence of transmission dips in agreement with the marker's excitation curves. For performing calcein AM overtime metabolic tracking, 4 cm-long fibers with unstained cells were aligned in the optical readout setup, and 10 μL of a 1:100 Calcein AM solution in CaPBS was added dropwise along the optical fiber's length. The spectral output was then collected every minute for a total of 10 minutes after the beginning of the calcein AM metabolization. The 495 nm normalized transmission values were obtained by normalizing all spectral curves to their maximum and extracting the normalized intensity values as an average of the 493-495 nm window. These were then plotted overtime.
LNCaP, 22Rv1, and DU145 cells were purchased from the American Type Culture Collection (ATCC; Manassas, VA). All cell lines were authenticated through Stanford Functional Genomics Facility. FUCRW plasmid was a kind gift from Dr. Owen Witte's laboratory at University of California Los Angeles. 22Rv1 and DU145 cells were infected with FUCRW virus expressing red fluorescent protein (RFP). RFP signal was confirmed 72 hours post infection. LNCaP-RFP-Trop2-OV cells expressing RFP and Trop2 oncogene were generated as previously described ^43. All cells were cultured in RPMI medium supplemented with 10% FBS, 4 mM L-glutamine, and 1% penicillin/streptomycin.
(§2) Spectral fingerprinting tests with the different cell lines were performed by integrating them within optical hydrogel fibers as described in the previous section. Briefly, cancer cells were resuspended in the core material at a density of 10 M/mL and cultured in different conditions, namely control medium, 1.5 μM Cisplatin (Biovision) or 1 μM Staurosporine (Biovision). After 48 h of culture, the living optical fibers were washed twice with PBS to remove media remains that could interfere with optical readouts (e.g., Phenol Red). Before measurement, fibers were placed in a 1 mM CaCl2) solution to facilitate their manipulation and were then aligned in the optical characterization setup with spectrometer connection. RFP-level transmission readouts were immediately obtained from the first output collected, and calcein activity overtime was then tracked by the addition of calcein and spectral recording every minute for 10 minutes, as described in the previous section. […] Both RFP and calcein signals were analyzed in several pictures per replicate via Cell Profiler, in order to compare the relative post-incubation signal intensities to the relative decreases in fiber optics transmission at each specific wavelength instantly (RFP) and overtime (calcein).

The subject of the next assay is DU145 cells. Kind of assay: Spectral fingerprinting (RFP-level transmission, real-time calcein AM metabolism) of cancer cells in living optical fibers. The settings on record: DU145 cells in fiber core, 48 h culture, 1.5 μM cisplatin or 1 μM staurosporine. Here is the method:
as §1
LNCaP, 22Rv1, and DU145 cells were purchased from the American Type Culture Collection (ATCC; Manassas, VA). All cell lines were authenticated through Stanford Functional Genomics Facility. FUCRW plasmid was a kind gift from Dr. Owen Witte's laboratory at University of California Los Angeles. 22Rv1 and DU145 cells were infected with FUCRW virus expressing red fluorescent protein (RFP). RFP signal was confirmed 72 hours post infection. […]
as §2, with “Briefly, cancer cells were resuspended in the core material at a density of 10 M/mL and cultured in different conditions, namely control medium, 1.5 μM Cisplatin (Biovision) or 1 μM Staurosporine (Biovision).” left out, “Before measurement, fibers were placed in a 1 mM CaCl2) solution to facilitate their manipulation and were then aligned in the optical characterization setup with spectrometer connection.” left out

Assay [1] relates to LnCAP-RFP-Trop2-OV cancer cells. Description: Digitalization and quantification of 3D cancer invasive proliferation in living optical fibers (output power, RFP-level transmission). The procedure: In order to evaluate the invasive proliferation of encapsulated cancer cells over time and quantify this response through optics upon exposure to different levels of the anti-proliferative drug cisplatin, the core material was modified by blending alginate with GelTrex (Growth-Factor Reduced Basement Membrane, Thermofisher) at a 50:50 ratio. Fibers with Cells were fabricated as described before with a 10 million/mL density and were cultured for 1 week to observe the cancer tissue development and the formation of fiberoid (fiber-shaped organoids) structures. To do so, fibers were incubated with Calcein AM 1:500 (Invitrogen) and Hoechst 33342 1:1000 (Thermo Scientific), washed with PBS and imaged under confocal microscope (Zeiss). As model cell line, we used the RFP-expressing LNCaP-RFP-Trop2-OV due to its aggressiveness and relevance in metastatic events. To then quantify the effect of cisplatin in the impedance of 3D tumor growth, fibers were cultured over a 5-days period under control conditions and increasing concentrations of cisplatin (1.5, 15 and 150 μM). After each time point, fibers were washed twice with CaPBS, briefly dipped in 1 mM CaCl2) and aligned in the optical characterization setup. Two types of immediate readouts were acquired: output power via powermeter reading and spectral response through spectrometer connection. Output power was directly used as an indicator of light attenuation induced by tumor growth and spectral data was processed to extract RFP-level transmission values, as plotted in the maintext. In parallel, fibers were also axially sectioned and imaged in confocal microscope for observing the distribution of cancer cells and aggregates within the fiber structure overtime and validate the fiber optics readouts.

Structures are written as SMILES.

With `CN[C@@H]1C[C@H]2O[C@@](C)([C@@H]1OC)n1c3ccccc3c3c4c(c5c6ccccc6n2c5c31)C(=O)NC4` [staurosporine], in the assay on RV122 cancer cells, the “calcein activity profiling (slope of calcein conversion)” value is recorded as “no longer possible to observe metabolic calcein conversion”; the “image quantification of native protein expression (RFP) and calcein metabolization” value is recorded as “more prominent effects”. Besides, the “native fluorescence, RFP-level transmission” value in the assay with RV122 cancer cells (RV122 cancer cells in fibers after drug exposure) is recorded as “significant decrease in fluorescent”. Also, in the assay on DU145 cells, the “RFP expression (RFP-level transmission)” value is “significant reduction in RFP expression” and the “capacity of cells to metabolize calcein (calcein AM real-time profile)” value is on record as “drastic inhibition”.
Turning to `N.N.[Cl][Pt][Cl]` [cisplatin], the “calcein activity profiling (slope of calcein conversion)” value with RV122 cancer cells is listed as “decrease in the slope”. Besides, the “image quantification of native protein expression (RFP) and calcein metabolization” value with RV122 cancer cells is recorded as “moderate effect”. Also, the “RFP expression (RFP-level transmission)” value with DU145 cells is given as “little impact”; in assay [1] (cisplatin 1.5 µM), “some effect in the protein's expression by day 5”; in assay [1] (cisplatin 15 μM), “noticeable effect after day 3”; in assay [1] (cisplatin 150 μM, after 1 day of culture), “significant decrease in expression”. Moreover, the “capacity of cells to metabolize calcein (calcein AM real-time profile)” value in the assay with DU145 cells is on record as “little impact”. For the same compound, the “cancer growth (optical fiber output power)” value in assay [1] (cisplatin 1.5 μM, up to 5 days) is “no significant impact”; in assay [1] (cisplatin 15 μM, up to 5 days), “prevented considerable growth after 3 days”. Besides, the “cancer growth / invasive proliferation (optical fiber output power)” value in assay [1] (cisplatin 150 μM, up to 5 days) is reported as “efficiently inhibited the invasive proliferation”.
